Experiments:
[1] = tested on: HCV genotype 1a (H77 strain) replicon in HUH-7 cells; assay: HCV replicon luciferase reporter assay, genotype 1a; assay type: cell-based; details: Hepatitis C virus, Huh-7, 72 h, HCV genotype 1a replicon luciferase, 3 days incubation, read-out: LE_1a (EC50, range)
Summary of the method: (§1)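 Replicon inhibition for both genotypes was measured as Renilla luciferase signal (EnduRen, 7.5 μM final, 2 h) after 3-day, 37° C exposure of replicon-bearing HUH-7 cells in 4% FCS DMEM, 0.5% DMSO. The 1b construct carries S1179I; the 1a H77 construct carries P1496L and S2204I. Twenty-point, 3-fold dilutions were fitted four-parametrically for EC50, and CC50 was taken from multiplexed Cell Titer-Blue.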

[2] = tested on: HCV genotype 1b (Con1) replicon in HUH-7 cells; assay: HCV replicon luciferase reporter assay, genotype 1b; assay type: cell-based; details: Hepatitis C virus, Huh-7, 72 h, HCV genotype 1b replicon luciferase, 3 days incubation, read-out: LE_1b (EC50, range)
Summary of the method: as §1

[2H]C([2H])([2H])C(OC(=O)N[C@@H]1C(=O)N2C[C@H](Oc3nccc4cc(OC(C)C)ccc34)C[C@H]2C(=O)N[C@]2(C(=O)NS(=O)(=O)C3CC3)C[C@H]2/C=C\CC[C@@H](C)C[C@H]1C)(C([2H])([2H])[2H])C([2H])([2H])[2H] [Compound 5155, 1,1,1,3,3,3-hexadeutero-2-(trideuteromethyl)propan-2-yl((2R,6S,7R,9R,13aS,14aR,16aS,Z)-14a-((cyclopropylsulfonyl)carbamoyl)-2-((6-isopropoxyisoquinolin-1-yl)oxy)-7,9-dimethyl-5,16-dioxo-1,2,3,5,6,7,8,9,10,11,13a,14,14a,15,16,16a-hexadecahydrocyclopropa[e]pyrrolo[1,2-a][1,4]diazacyclopentadecin-6-yl)carbamate]
EC50 [1]: < 5.46 nM
EC50 [2]: < 5.46 nM

CC(C)Oc1ccc2c(O[C@@H]3C[C@H]4C(=O)N[C@]5(C(=O)NS(=O)(=O)C6(C)CC6)C[C@H]5/C=C\CC[C@H](C)C[C@@H](C)[C@H](NC(=O)OC(C)(C)C)C(=O)N4C3)nccc2c1 [Compound 5156, tert-butyl ((2R,6S,7R,9S,13aS,14aR,16aS,Z)-2-((6-isopropoxyisoquinolin-1-yl)oxy)-7,9-dimethyl-14a-(((1-methylcyclopropyl)sulfonyl)carbamoyl)-5,16-dioxo-1,2,3,5,6,7,8,9,10,11,13a,14,14a,15,16,16a-hexadecahydrocyclopropa[e]pyrrolo[1,2-a][1,4]diazacyclopentadecin-6-yl)carbamate]
EC50 [1]: 4.82 to 103 nM
EC50 [2]: 4.82 to 103 nM

CC(C)Oc1ccc2c(O[C@@H]3C[C@H]4C(=O)N[C@]5(C(=O)NS(=O)(=O)C6(C)CC6)C[C@H]5/C=C\CC[C@@H](C)C[C@@H](C)[C@H](NC(=O)OC(C)(C)C)C(=O)N4C3)nccc2c1 [Compound 5157, tert-butyl ((2R,6S,7R,9R,13aS,14aR,16aS,Z)-2-((6-isopropoxyisoquinolin-1-yl)oxy)-7,9-dimethyl-14a-(((1-methylcyclopropyl)sulfonyl)carbamoyl)-5,16-dioxo-1,2,3,5,6,7,8,9,10,11,13a,14,14a,15,16,16a-hexadecahydrocyclopropa[e]pyrrolo[1,2-a][1,4]diazacyclopentadecin-6-yl)carbamate]
EC50 [1]: < 5.46 nM
EC50 [2]: < 5.46 nM

CC(C)Oc1ccc2c(O[C@@H]3C[C@H]4C(=O)N[C@]5(C(=O)NS(=O)(=O)C6(C)CC6)C[C@H]5/C=C\CC[C@H](C)C[C@@H](C)[C@H](NC(=O)OC(C)(C)C(F)(F)F)C(=O)N4C3)nccc2c1 [Compound 5158, 1,1,1-trifluoro-2-methylpropan-2-yl((2R,6S,7R,9S,13aS,14aR,16aS,Z)-2-((6-isopropoxyisoquinolin-1-yl)oxy)-7,9-dimethyl-14a-(((1-methylcyclopropyl)sulfonyl)carbamoyl)-5,16-dioxo-1,2,3,5,6,7,8,9,10,11,13a,14,14a,15,16,16a-hexadecahydrocyclopropa[e]pyrrolo[1,2-a][1,4]diazacyclopentadecin-6-yl)carbamate]
EC50 [1]: 4.82 to 103 nM
EC50 [2]: < 5.46 nM

CC(C)Oc1ccc2c(O[C@@H]3C[C@H]4C(=O)N[C@]5(C(=O)NS(=O)(=O)C6(C)CC6)C[C@H]5/C=C\CC[C@@H](C)C[C@@H](C)[C@H](NC(=O)OC(C)(C)C(F)(F)F)C(=O)N4C3)nccc2c1 [Compound 5159, 1,1,1-trifluoro-2-methylpropan-2-yl((2R,6S,7R,9R,13aS,14aR,16aS,Z)-2-((6-isopropoxyisoquinolin-1-yl)oxy)-7,9-dimethyl-14a-(((1-methylcyclopropyl)sulfonyl)carbamoyl)-5,16-dioxo-1,2,3,5,6,7,8,9,10,11,13a,14,14a,15,16,16a-hexadecahydrocyclopropa[e]pyrrolo[1,2-a][1,4]diazacyclopentadecin-6-yl)carbamate]
EC50 [1]: < 5.46 nM
EC50 [2]: < 5.46 nM

CC(C)Oc1ccc2c(O[C@@H]3C[C@H]4C(=O)N[C@]5(C(=O)NS(=O)(=O)C6(C)CC6)C[C@H]5/C=C\CC[C@H](C)C[C@@H](C)[C@H](NC(=O)O[C@H](C)C(F)(F)F)C(=O)N4C3)nccc2c1 [Compound 5160, (R)-1,1,1-trifluoropropan-2-yl ((2R,6S,7R,9S,13aS,14aR,16aS,Z)-2-((6-isopropoxyisoquinolin-1-yl)oxy)-7,9-dimethyl-14a-(((1-methylcyclopropyl)sulfonyl)carbamoyl)-5,16-dioxo-1,2,3,5,6,7,8,9,10,11,13a,14,14a,15,16,16a-hexadecahydrocyclopropa[e]pyrrolo[1,2-a][1,4]diazacyclopentadecin-6-yl)carbamate]
EC50 [1]: 4.82 to 103 nM
EC50 [2]: < 5.46 nM

CC(C)Oc1ccc2c(O[C@@H]3C[C@H]4C(=O)N[C@]5(C(=O)NS(=O)(=O)C6(C)CC6)C[C@H]5/C=C\CC[C@@H](C)C[C@@H](C)[C@H](NC(=O)O[C@H](C)C(F)(F)F)C(=O)N4C3)nccc2c1 [Compound 5161, (R)-1,1,1-trifluoropropan-2-yl ((2R,6S,7R,9R,13aS,14aR,16aS,Z)-2-((6-isopropoxyisoquinolin-1-yl)oxy)-7,9-dimethyl-14a-(((1-methylcyclopropyl)sulfonyl)carbamoyl)-5,16-dioxo-1,2,3,5,6,7,8,9,10,11,13a,14,14a,15,16,16a-hexadecahydrocyclopropa[e]pyrrolo[1,2-a][1,4]diazacyclopentadecin-6-yl)carbamate]
EC50 [1]: < 5.46 nM
EC50 [2]: < 5.46 nM

CC(C)Oc1ccc2c(O[C@@H]3C[C@H]4C(=O)N[C@]5(C(=O)NS(=O)(=O)C6(C)CC6)C[C@H]5/C=C\CC[C@H](C)C[C@@H](C)[C@H](NC(=O)O[C@@H]5C[C@@H]6C[C@@H]6C5)C(=O)N4C3)nccc2c1 [Compound 5162, (1R,3r,5S)-bicyclo[3.1.0]hexan-3-yl((2R,6S,7R,9S,13aS,14aR,16aS,Z)-2-((6-isopropoxyisoquinolin-1-yl)oxy)-7,9-dimethyl-14a-(((1-methylcyclopropyl)sulfonyl)carbamoyl)-5,16-dioxo-1,2,3,5,6,7,8,9,10,11,13a,14,14a,15,16,16a-hexadecahydrocyclopropa[e]pyrrolo[1,2-a][1,4]diazacyclopentadecin-6-yl)carbamate]
EC50 [1]: 4.82 to 103 nM
EC50 [2]: < 5.46 nM

CC(C)Oc1ccc2c(O[C@@H]3C[C@H]4C(=O)N[C@]5(C(=O)NS(=O)(=O)C6(C)CC6)C[C@H]5/C=C\CC[C@@H](C)C[C@@H](C)[C@H](NC(=O)O[C@@H]5C[C@@H]6C[C@@H]6C5)C(=O)N4C3)nccc2c1 [Compound 5163, (1R,3r,5S)-bicyclo[3.1.0]hexan-3-yl((2R,6S,7R,9R,13aS,14aR,16aS,Z)-2-((6-isopropoxyisoquinolin-1-yl)oxy)-7,9-dimethyl-14a-(((1-methylcyclopropyl)sulfonyl)carbamoyl)-5,16-dioxo-1,2,3,5,6,7,8,9,10,11,13a,14,14a,15,16,16a-hexadecahydrocyclopropa[e]pyrrolo[1,2-a][1,4]diazacyclopentadecin-6-yl)carbamate]
EC50 [1]: < 5.46 nM
EC50 [2]: < 5.46 nM

[2H]C([2H])([2H])C(C)(OC(=O)N[C@@H]1C(=O)N2C[C@H](Oc3nccc4cc(OC(C)C)ccc34)C[C@H]2C(=O)N[C@]2(C(=O)NS(=O)(=O)C3(C)CC3)C[C@H]2/C=C\CC[C@H](C)C[C@H]1C)C([2H])([2H])[2H] [Compound 5164]
EC50 [1]: 4.82 to 103 nM
EC50 [2]: 4.82 to 103 nM

[2H]C([2H])([2H])C(C)(OC(=O)N[C@@H]1C(=O)N2C[C@H](Oc3nccc4cc(OC(C)C)ccc34)C[C@H]2C(=O)N[C@]2(C(=O)NS(=O)(=O)C3(C)CC3)C[C@H]2/C=C\CC[C@@H](C)C[C@H]1C)C([2H])([2H])[2H] [Compound 5165]
EC50 [1]: < 5.46 nM
EC50 [2]: < 5.46 nM

[2H]C([2H])([2H])C(OC(=O)N[C@@H]1C(=O)N2C[C@H](Oc3nccc4cc(OC(C)C)ccc34)C[C@H]2C(=O)N[C@]2(C(=O)NS(=O)(=O)C3(C)CC3)C[C@H]2/C=C\CC[C@H](C)C[C@H]1C)(C([2H])([2H])[2H])C([2H])([2H])[2H] [Compound 5166, 1,1,1,3,3,3-hexadeutero-2-(trideuteromethyl)propan-2-yl((2R,6S,7R,9S,13aS,14aR,16aS,Z)-2-((6-isopropoxyisoquinolin-1-yl)oxy)-7,9-dimethyl-14a-(((1-methylcyclopropyl)sulfonyl)carbamoyl)-5,16-dioxo-1,2,3,5,6,7,8,9,10,11,13a,14,14a,15,16,16a-hexadecahydrocyclopropa[e]pyrrolo[1,2-a][1,4]diazacyclopentadecin-6-yl)carbamate]
EC50 [1]: 4.82 to 103 nM
EC50 [2]: 4.82 to 103 nM

[2H]C([2H])([2H])C(OC(=O)N[C@@H]1C(=O)N2C[C@H](Oc3nccc4cc(OC(C)C)ccc34)C[C@H]2C(=O)N[C@]2(C(=O)NS(=O)(=O)C3(C)CC3)C[C@H]2/C=C\CC[C@@H](C)C[C@H]1C)(C([2H])([2H])[2H])C([2H])([2H])[2H] [Compound 5167, 1,1,1,3,3,3-hexadeutero-2-(trideuteromethyl)propan-2-yl((2R,6S,7R,9R,13aS,14aR,16aS,Z)-2-((6-isopropoxyisoquinolin-1-yl)oxy)-7,9-dimethyl-14a-(((1-methylcyclopropyl)sulfonyl)carbamoyl)-5,16-dioxo-1,2,3,5,6,7,8,9,10,11,13a,14,14a,15,16,16a-hexadecahydrocyclopropa[e]pyrrolo[1,2-a][1,4]diazacyclopentadecin-6-yl)carbamate]
EC50 [1]: < 5.46 nM
EC50 [2]: < 5.46 nM

CCCOc1ccc2c(O[C@@H]3C[C@H]4C(=O)N[C@]5(C(=O)NS(=O)(=O)C6CC6)C[C@H]5/C=C\CC[C@H](C)C[C@@H](C)[C@H](NC(=O)OC(C)(C)C)C(=O)N4C3)nccc2c1 [Compound 5168, tert-butyl ((2R,6S,7R,9S,13aS,14aR,16aS,Z)-14a-((cyclopropylsulfonyl)carbamoyl)-7,9-dimethyl-5,16-dioxo-2-((6-propoxyisoquinolin-1-yl)oxy)-1,2,3,5,6,7,8,9,10,11,13a,14,14a,15,16,16a-hexadecahydrocyclopropa[e]pyrrolo[1,2-a][1,4]diazacyclopentadecin-6-yl)carbamate]
EC50 [1]: < 5.46 nM
EC50 [2]: < 5.46 nM

— patent US9499550B2 (BRISTOL-MYERS SQUIBB COMPANY, priority 2012, dated 2016)
